Results: patent US7671181B2, “Polynucleotides encoding coccidian parasite casein kinase I, a chemotherapeutic target for antiprotozoal agents” (Merck Sharp & Dohme Corp., priority 2004, dated 2010)
Where two headings read alike, the source gives them in different places.

Legend:
T. gondii tachyzoites = test: [3H]-uracil uptake assay of parasite growth inhibition in infected HFF cell monolayers; type: cell-based, Toxoplasma gondii; details: for IC50: read-out: IC50 against T. gondii in the uracil uptake assay; for activity against cultured T. gondii parasites: uracil uptake / whole cell assay
Text: (§1) Host cells and parasite cultures—RH strain or RH ΔHXGPRT strain tachyzoites of T. gondii were maintained by serial passage in confluent monolayers of human foreskin fibroblasts (“HFF”) as described (Roos, D. S. et al., 1994, Methods Cell Biol. 45:27-63). A modified [^3H]-uracil uptake assay (Pfefferkorn, E. R. and Pfefferkorn, L. C., 1977, J. Protozool. 24:449-453) adapted for use in 96-well scintillation plates (Cytostar-T, Amersham; Piscataway, N.J.) was used to measure parasite growth inhibition. Each well, previously seeded with HFF cells, was inoculated with T. gondii tachyzoites (2×10^4) in 200 μl of growth media containing 2 μCi [5,6]-^3H-uracil (Perkin-Elmer NEN; Boston, Mass.) and serially diluted compound. Following incubation at 37° C. for 36-48 hours, tritium-incorporation into host cell monolayers was directly counted in a microplate scintillation counter (MicroBeta, PerkinElmer-Wallac).

T. gondii = test: Parasite growth inhibition, modified [3H]-uracil uptake assay in infected HFF cell monolayers; type: cell-based, Toxoplasma gondii; details: for activity against T. gondii in the uracil uptake (whole cell) assay: cultured parasites, in words
Text: as §1
The only other CDK inhibitor with sub-μM activity against T. gondii was indirubin-3′-monoxime, which gave an IC50 value of 500 nM.

TgCKIα [1] = target: T1, TgCKIα (Toxoplasma gondii, UniProt Q6QNM1); test: Casein kinase assay, TgCKIα (recombinant FLAGTgCKIα or partially purified native); type: biochemical; set-up: other: recombinant or native forms of TgCKIα
Description: (§2) Protein kinase assays—Casein kinase activity was assayed essentially as described (Donald, R. G. K. et al., 2002, supra) using 96-well phosphocellulose plates (MAPH-NOB, Millipore; Billerica, Mass.) to capture ^33P-phosphorylated peptide or casein substrates. Kinase reactions were carried out in 40 μl volumes containing 25 mM Hepes, pH 7.4, 10 mM MgCl2, 20 mM β-glycerophosphate, 1 mM DTT, 250 μM substrate, 1 mg/mL BSA, 2 μM ATP, and 0.01 μM [γ-^33P]ATP (Perkin-Elmer, 3000 Ci/mmol). […] Casein (5% solution), partially dephosphorylated α-casein and β-casein were obtained from Sigma.
(§3) A variety of commercially available peptide substrates were evaluated. From Calbiochem (San Diego, Calif.): CKI substrate (RRKDLHDDEEDEAMSITA; SEQ ID NO:13); CKII substrate (RRADDSDDDDD; SEQ ID NO:14); Syntide-2 substrate (PLARTLSVAGLPGKK; SEQ ID NO:15); CaM kinase II substrate (281-291) (MHKNETVECLK; SEQ ID NO:16). From Promega: CKI substrate (DDDEESITRR; SEQ ID NO:17) and kemptide (LRRASLG; SEQ ID NO:18). From New England Biolabs (Beverly, Mass.): CKI phosphopeptide substrate (KRRRALS(p)VASLPGL; SEQ ID NO:19), and CKII substrate (RRREEETEEE; SEQ ID NO:20). PKG assays were performed with kemptide as substrate and 10 μM cGMP. CDPK was assayed with Syntide-2 substrate and in the presence of 100 μM CaCl2.
Purification of recombinant CKI enzymes—E. coli strain BL21 Origami™ (Novagen) was transformed with FLAGTgCKIα and FLAGTgCKIβ expression vectors, and colonies were expanded into 250 mL LB cultures grown at 37° C. […] Protein was measured with a micro-BCA reagent (Pierce) following a TCA-sodium deoxycholate step to remove residual FLAG peptide (Brown et al., 1989, Anal. Biochem. 180:136-139). […]
(§4) Preparations of FLAGTgCKIα and FLAGTgCKIβ were purified further on a SMART system FPLC 0.1 mL MonoQ anion exchange column (Pharmacia; New York, N.Y.) equilibrated in buffer A (50 mM Hepes, pH 7.4, 10% glycerol, 1 mM DTT) at room temperature. […] A linear salt gradient was applied (0-500 mM in 3 mL at 100 μl/min) and 100 μl fractions were collected and analyzed by SDS-PAGE and for CKI activity. […]

EtCKIα = EtCKIα (Eimeria tenella, UniProt Q6QNL9); test: Casein kinase assay, partially purified native EtCKIα; type: biochemical; details: native enzyme
Description: (§5) Protein kinase assays—Casein kinase activity was assayed essentially as described (Donald, R. G. K. et al., 2002, supra) using 96-well phosphocellulose plates (MAPH-NOB, Millipore; Billerica, Mass.) to capture ^33P-phosphorylated peptide or casein substrates. Kinase reactions were carried out in 40 μl volumes containing 25 mM Hepes, pH 7.4, 10 mM MgCl2, 20 mM β-glycerophosphate, 1 mM DTT, 250 μM substrate, 1 mg/mL BSA, 2 μM ATP, and 0.01 μM [γ-^33P]ATP (Perkin-Elmer, 3000 Ci/mmol). The reactions were initiated by the addition of enzyme and incubated at room temperature for 60 min. Casein (5% solution), partially dephosphorylated α-casein and β-casein were obtained from Sigma.
as §3
Partial purification of native EtCKIα—The inability to stably express recombinant EtCKIα in T. gondii provided impetus to purify native enzyme from E. tenella parasites (slide 5). A lysate was prepared from 2×10^10 unsporulated oocysts using previously published procedures (Gurnett, A. M. et al., 2002, supra). The first two steps of the purification scheme used were essentially scaled-up from the method described for the purification of native TgCKIα. The lysate was subjected to preparative HiLoad Q anion-exchange chromatography and fractions eluted with a NaCl gradient (0-1 M NaCl). […]

TgCKIβ = TgCKIβ (Toxoplasma gondii, UniProt Q6QNM0); test: Casein kinase assay, recombinant FLAGTgCKIβ; type: biochemical; details: substrate titration, 2 μM ATP; for Km: read-out: Km(app), FLAGTgCKIβ
Description: as §2, §3
(§6) Purification of recombinant CKI enzymes—E. coli strain BL21 Origami™ (Novagen) was transformed with FLAGTgCKIα and FLAGTgCKIβ expression vectors, and colonies were expanded into 250 mL LB cultures grown at 37° C. Expression was induced with 1 mM IPTG once cultures had reached an OD600nm of 0.3-0.5, and the transformed bacteria were harvested 4-6 hours later. Cell pellets were resuspended in 15 mL of lysis buffer containing protease inhibitors and lysates prepared as described by the supplier (Bugbuster™ reagents, Novagen). The concentration of NaCl in the lysate was adjusted to 0.5 M, and 0.5 mL of FLAG-agarose beads were added (Sigma). The mixture was allowed to rock in a Nutator mixer (Becton-Dickinson; San Jose, Calif.) for 2 hours at 4° C. The slurry was then poured into an empty column and the matrix washed with 50 mL of wash buffer (50 mM Tris-HCl, pH 7.4, 0.5M NaCl, 10% glycerol, 1 mM DTT, 1 mM EDTA). Enzyme was eluted with 5 mL of 0.4 mg/mL FLAG peptide (Sigma) in NaCl-free wash buffer and concentrated with a centrifuge filtration unit (Amicon Ultra®, 10 kDa cut-off, Millipore). Protein was measured with a micro-BCA reagent (Pierce) following a TCA-sodium deoxycholate step to remove residual FLAG peptide (Brown et al., 1989, Anal. Biochem. 180:136-139). Using this procedure, and SDS-PAGE analysis, the yield of FLAGTgCKIβ was estimated as ˜200 μg of enzyme with >90% purity. Purification of FLAGTgCKIα was much less efficient with only about 1 μg of ˜10% pure enzyme obtained per 250 mL bacterial culture.
Preparations of FLAGTgCKIα and FLAGTgCKIβ were purified further on a SMART system FPLC 0.1 mL MonoQ anion exchange column (Pharmacia; New York, N.Y.) equilibrated in buffer A (50 mM Hepes, pH 7.4, 10% glycerol, 1 mM DTT) at room temperature. Samples of FLAG-affinity purified enzyme (10-100 μg) were syringe-passed through a 0.22 μm (pore-size) filter before loading on the column. A linear salt gradient was applied (0-500 mM in 3 mL at 100 μl/min) and 100 μl fractions were collected and analyzed by SDS-PAGE and for CKI activity. Fractions with peak activity were retained for further analysis. The degree of purity of the partially purified FLAGTgCKIα was estimated by densitometry of silver stained SDS-PAGE gels. A recombinant rat CKIδ enzyme used for control purposes was obtained from New England Biolabs.

TgCDPK1 = target: T2, TgCDPK1 (Toxoplasma gondii, UniProt Q9BJF5); test: CDPK assay with Syntide-2, T. gondii CDPK1; type: biochemical; details: read-out: IC50 against the CDPK1 enzyme
T2 construct: The TgCDPK1 open reading frame was amplified by PCR from a Toxoplasma cDNA library; made in house
Description: as §5, §3
Purification of recombinant TgCDPK1 and TgPKG—The TgCDPK1 open reading frame was amplified by PCR from a Toxoplasma cDNA library, using primers based on the published sequence (Kieschnick et al., 2001, supra): sense primer, […] (SEQ ID NO:44); and, antisense primer, […] (SEQ ID NO:45). A C-terminal FLAG epitope tag was appended to the TgCDPK1 open reading frame by an additional round of PCR amplification (KOD polymerase) and the resulting DNA fragment was sub-cloned into a tubulin promoter expression vector (Donald and Liberator, 2002, supra). […]

TgCKIα [2] = target: T1, TgCKIα; test: Casein kinase assay, TgCKIα (recombinant FLAGTgCKIα or partially purified native); type: biochemical; set-up: Vmax(app), FLAGTgCKIα; other: substrate titration, 2 μM ATP; Km(app), FLAGTgCKIα; details: substrate titration, 2 μM ATP; for Km: read-out: Km(app), FLAGTgCKIα
Description: as §2, §3
as §6, with “Enzyme was eluted with 5 mL of 0.4 mg/mL FLAG peptide (Sigma) in NaCl-free wash buffer and concentrated with a centrifuge filtration unit (Amicon Ultra®, 10 kDa cut-off, Millipore).” left out, “Using this procedure, and SDS-PAGE analysis, the yield of FLAGTgCKIβ was estimated as ˜200 μg of enzyme with >90% purity. Purification of FLAGTgCKIα was much less efficient with only about 1 μg of ˜10% pure enzyme obtained per 250 mL bacterial culture.” left out
as §4

TgCKIα [3] = target: T1, TgCKIα; test: as above; type: biochemical; set-up: Km(app), native TgCKIα; other: substrate titration, 2 μM ATP; IC50, nativeTgCKIα; other: partially purified native enzyme from Toxoplasma tachyzoites; sensitivity of native TgCKIα phosphopeptide kinase activity (HiTrapQ fractions 5-9); other: 0.2 μM hymenialdisine or 1; details: substrate titration, 2 μM ATP; read-out: Km(app), native TgCKIα
Description: as §2, §3
as §6, with “Enzyme was eluted with 5 mL of 0.4 mg/mL FLAG peptide (Sigma) in NaCl-free wash buffer and concentrated with a centrifuge filtration unit (Amicon Ultra®, 10 kDa cut-off, Millipore).” left out, “Using this procedure, and SDS-PAGE analysis, the yield of FLAGTgCKIβ was estimated as ˜200 μg of enzyme with >90% purity. Purification of FLAGTgCKIα was much less efficient with only about 1 μg of ˜10% pure enzyme obtained per 250 mL bacterial culture.” left out
as §4

Sequence of TgCKIβ (Q6QNM0 entry or part of it): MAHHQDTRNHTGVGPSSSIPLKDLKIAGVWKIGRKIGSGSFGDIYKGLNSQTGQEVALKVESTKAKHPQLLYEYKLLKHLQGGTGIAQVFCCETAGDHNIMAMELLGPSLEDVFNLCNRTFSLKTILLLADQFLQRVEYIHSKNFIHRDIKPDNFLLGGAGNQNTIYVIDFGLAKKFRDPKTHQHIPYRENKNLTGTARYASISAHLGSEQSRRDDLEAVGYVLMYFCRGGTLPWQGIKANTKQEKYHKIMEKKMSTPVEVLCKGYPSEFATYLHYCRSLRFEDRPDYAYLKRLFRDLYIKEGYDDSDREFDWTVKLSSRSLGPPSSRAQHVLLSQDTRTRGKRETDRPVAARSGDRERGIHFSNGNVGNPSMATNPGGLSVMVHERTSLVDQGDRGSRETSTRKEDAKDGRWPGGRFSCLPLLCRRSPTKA
T1 sequence (Q6QNM1 whole entry, looked up): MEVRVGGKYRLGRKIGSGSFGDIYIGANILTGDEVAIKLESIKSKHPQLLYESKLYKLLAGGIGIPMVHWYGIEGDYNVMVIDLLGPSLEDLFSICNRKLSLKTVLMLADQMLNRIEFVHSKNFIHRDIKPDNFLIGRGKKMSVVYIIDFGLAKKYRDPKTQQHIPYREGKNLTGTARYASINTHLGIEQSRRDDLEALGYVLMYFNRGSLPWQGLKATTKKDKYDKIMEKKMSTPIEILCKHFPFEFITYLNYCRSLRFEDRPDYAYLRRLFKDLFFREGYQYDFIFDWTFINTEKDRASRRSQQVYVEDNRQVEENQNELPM
Sequence of EtCKIα (Q6QNL9 whole entry): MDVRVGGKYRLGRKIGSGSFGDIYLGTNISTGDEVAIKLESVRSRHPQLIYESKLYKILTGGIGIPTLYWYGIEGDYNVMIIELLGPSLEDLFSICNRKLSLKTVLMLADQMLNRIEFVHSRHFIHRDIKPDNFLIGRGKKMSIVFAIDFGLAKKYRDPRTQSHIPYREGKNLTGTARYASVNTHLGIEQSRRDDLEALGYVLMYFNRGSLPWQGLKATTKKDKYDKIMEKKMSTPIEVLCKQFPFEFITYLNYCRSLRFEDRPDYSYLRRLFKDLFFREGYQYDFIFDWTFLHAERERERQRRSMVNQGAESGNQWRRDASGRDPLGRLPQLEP
T2 sequence (Q9BJF5 entry or part of it): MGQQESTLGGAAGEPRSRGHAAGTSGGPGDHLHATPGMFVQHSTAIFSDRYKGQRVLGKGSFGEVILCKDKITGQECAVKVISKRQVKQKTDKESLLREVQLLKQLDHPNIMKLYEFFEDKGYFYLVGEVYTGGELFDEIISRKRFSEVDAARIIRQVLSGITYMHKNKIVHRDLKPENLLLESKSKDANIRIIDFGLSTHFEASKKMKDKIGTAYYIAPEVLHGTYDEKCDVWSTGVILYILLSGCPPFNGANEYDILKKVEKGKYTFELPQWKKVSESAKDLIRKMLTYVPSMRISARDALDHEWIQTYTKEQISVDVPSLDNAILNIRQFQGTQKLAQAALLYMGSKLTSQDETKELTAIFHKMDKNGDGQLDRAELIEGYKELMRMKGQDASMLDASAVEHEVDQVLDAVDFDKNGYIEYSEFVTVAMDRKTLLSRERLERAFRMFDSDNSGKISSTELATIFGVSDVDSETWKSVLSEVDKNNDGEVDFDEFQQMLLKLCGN

**Q.** Which results are given for CN1CCC(c2cc(-c3ccncc3)c(-c3ccc(F)cc3)[nH]2)CC1 [Compound 1]?
**A.** IC50 (T. gondii tachyzoites; infected HFF cell monolayers, 36-48 hours): 200 nM; IC50 (T. gondii; Toxoplasma gondii, HFF): 200 nM

**Q.** With CC(C)[C@H](CO)Nc1nc(Nc2cc(N)cc(Cl)c2)c2ncn(C(C)C)c2n1 [aminopurvalanol] as the molecule, how does the IC50 (TgCKIα [1]) read?
**A.** 40 to 60 nM

**Q.** And the “activity against / sensitivity of EtCKIα” value (EtCKIα)?
**A.** good activity

**Q.** What about the IC50 (T. gondii tachyzoites; Toxoplasma gondii, HFF) of the same molecule?
**A.** 375 nM

**Q.** With Cn1cnc2c(NCc3ccccc3)nc(NCCO)nc21 [olomoucine] as the molecule, how does the “activity against cultured T. gondii parasites” value (T. gondii tachyzoites) read?
**A.** no activity

**Q.** For CC(C)[C@H](CO)Nc1nc(Nc2cccc(Cl)c2)c2ncn(C(C)C)c2n1 [purvalanol A], which “activity against cultured T. gondii parasites” value (T. gondii tachyzoites) is on record?
**A.** mediocre activity

**Q.** What about the “activity against T. gondii in the uracil uptake (whole cell) assay” value (T. gondii) of the same molecule?
**A.** only mediocre activity

**Q.** For CC[C@H](CO)Nc1nc(NCc2ccccc2)c2ncn(C(C)C)c2n1 [roscovitine], which “activity against cultured T. gondii parasites” value (T. gondii tachyzoites) is on record?
**A.** mediocre activity

**Q.** And the “activity against T. gondii in the uracil uptake (whole cell) assay” value (T. gondii)?
**A.** only mediocre activity

**Q.** Which results are given for RRKDLHDDEEDEAMSITA [CKI peptide]?
**A.** Vmax(app), FLAGTgCKIβ (TgCKIβ): 8 nmol/min/mg; Km (TgCKIβ): 15 µM

**Q.** With indirubin-3′-monoxime as the molecule, how does the IC50 (TgCKIα [1]; recombinant or native forms of TgCKIα, read-out: IC50 against TgCKIα) read?
**A.** 172 nM

**Q.** And the IC50 (TgCDPK1)?
**A.** 175 nM

B1: α-casein: partially dephosphorylated α-casein from Sigma, kinase substrate (protein)
chain: RPKHPIKHQGLPQEVLNENLLRFFVAPFPEVFGKEKVNELSKDIGSESTEDQAMEDIKQMEAESISSSEEIVPNSVEQKHIQKEDVPSERYLGYLEQLLRLKKYKVPQLEIVPNSAEERLHSMKEGIHAQQKEPMIGVNQELAYFYPELFRQFYQLDAYPSGAWYYVPLGTQYTDAPSFSDIPNPIGSENSEKTTMPLW
**Q.** For B1, which “Vmax(app), FLAGTgCKIα” value (TgCKIα [2]) is on record?
**A.** 8 nmol/min/mg

**Q.** And the Km (TgCKIα [2])?
**A.** 4 µM

**Q.** And the Km (TgCKIα [3])?
**A.** 3 µM

**Q.** What about the “Vmax(app), FLAGTgCKIβ” value (TgCKIβ) of the same molecule?
**A.** 12 nmol/min/mg

**Q.** And the Km (TgCKIβ)?
**A.** 5 µM

B2: β-casein: β-casein from Sigma, kinase substrate (protein)
chain: RELEELNVPGEIVESLSSSEESITRINKKIEKFQSEEQQQTEDELQDKIHPFAQTQSLVYPFPGPIPNSLPQNIPPLTQTPVVVPPFLQPEVMGVSKVKEAMAPKHKEMPFPKYPVEPFTESQSLTLTDVENLHLPLPLLQSWMHQPHQPLPPTVMFPPQSVLSLSQSKVLPVPQKAVPYPQRDMPIQAFLLYQEPVLGPVRGPFPIIV
**Q.** What does the source list for B2?
**A.** Vmax(app), FLAGTgCKIα (TgCKIα [2]): 8 nmol/min/mg; Km (TgCKIα [2]): 30 µM; Km (TgCKIα [3]): 13 µM; Vmax(app), FLAGTgCKIβ (TgCKIβ): 16 nmol/min/mg; Km (TgCKIβ): 12 µM
